# Data: US11518739B2, “Sulfonamide carboxamide compounds” (Inflazome Limited, priority 2017, dated 2022)
# Structures can show the parent of a compound that is named as a salt.
# Legend:
# NLRP3 [1] = target: T1, NLRP3 (Homo sapiens, UniProt Q96P20); test: THP-1 cells pyroptosis assay (LPS-primed, nigericin-triggered, resazurin readout); format: cell-based; set-up: Seed THP-1 cells (25,000 cells/well) containing 1.0 μg/ml LPS in 40 μl of RPMI medium; host or cells: THP-1 cells, LPS-primed, nigericin-triggered; conditions: NLRP3 inhibitory activity in THP-1 cells, 1.0 μg/ml LPS, 5 μM nigericin
# T1 sequence (Q96P20 whole entry): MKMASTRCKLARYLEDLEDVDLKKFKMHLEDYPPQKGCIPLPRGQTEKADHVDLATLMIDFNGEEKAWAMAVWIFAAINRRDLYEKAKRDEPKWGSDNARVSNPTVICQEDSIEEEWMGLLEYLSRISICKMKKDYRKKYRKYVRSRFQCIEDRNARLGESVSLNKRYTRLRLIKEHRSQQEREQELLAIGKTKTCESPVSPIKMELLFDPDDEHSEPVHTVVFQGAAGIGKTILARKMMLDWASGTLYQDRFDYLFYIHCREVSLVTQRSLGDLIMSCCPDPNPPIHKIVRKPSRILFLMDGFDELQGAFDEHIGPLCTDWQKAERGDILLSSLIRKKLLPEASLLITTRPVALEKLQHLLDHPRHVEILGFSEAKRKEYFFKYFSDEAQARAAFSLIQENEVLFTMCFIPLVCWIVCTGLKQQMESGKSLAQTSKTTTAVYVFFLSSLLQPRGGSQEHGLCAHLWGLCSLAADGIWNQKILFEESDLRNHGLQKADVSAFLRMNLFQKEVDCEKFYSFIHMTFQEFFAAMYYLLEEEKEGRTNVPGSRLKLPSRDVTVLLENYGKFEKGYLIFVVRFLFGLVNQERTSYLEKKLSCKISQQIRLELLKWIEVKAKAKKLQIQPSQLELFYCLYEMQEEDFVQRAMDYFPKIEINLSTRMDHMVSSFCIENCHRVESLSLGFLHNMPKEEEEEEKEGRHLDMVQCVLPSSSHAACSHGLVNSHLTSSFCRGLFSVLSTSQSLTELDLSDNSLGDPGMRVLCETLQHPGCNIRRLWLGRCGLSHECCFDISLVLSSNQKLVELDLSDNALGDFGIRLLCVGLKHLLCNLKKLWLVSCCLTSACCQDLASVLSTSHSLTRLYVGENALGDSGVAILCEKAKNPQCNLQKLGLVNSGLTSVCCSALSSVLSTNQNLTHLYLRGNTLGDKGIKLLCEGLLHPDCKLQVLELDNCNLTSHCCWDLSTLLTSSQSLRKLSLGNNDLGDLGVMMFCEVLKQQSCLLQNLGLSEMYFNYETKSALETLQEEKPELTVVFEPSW
# Experimental: THP-1 cells (ATCC #TIB-202) were grown in RPMI containing L-glutamine (Gibco #11835) supplemented with ImM sodium pyruvate (Sigma #S8636) and penicillin (100 units/ml)/streptomycin (0.1 mg/ml) (Sigma #P4333) in 10% Fetal Bovine Serum (FBS) (Sigma #F0804). The cells were routinely passaged and grown to confluency ([…]). On the day of the experiment, THP-1 cells were harvested and resuspended into RPMI medium (without FBS). The cells were then counted and viability (>90%) checked by Trypan blue (Sigma #T8154). Appropriate dilutions were made to give a concentration of 625,000 cells/ml. To this diluted cell solution was added LPS (Sigma #L4524) to give a 1 μg/ml Final Assay Concentration (FAC). […] of the final preparation was aliquoted into each well of a 96-well plate. The plate thus prepared was used for compound screening.
# The following method step-by-step assay was followed for compound screening. • 1. Seed THP-1 cells (25,000 cells/well) containing 1.0 μg/ml LPS in 40 μl of RPMI medium (without FBS) in 96-well, black walled, clear bottom cell culture plates coated with poly-D-lysine (VWR #734-0317) • 2. Add 5 μl compound (8 points half-log dilution, with 10 μM top dose) or vehicle (DMSO 0.1% FAC) to the appropriate wells • 3. Incubate for 3 hrs at 37° C. in 5% CO2 • 4. Add 5 μl nigericin (Sigma #N7143) (FAC 5 μM) to all wells • 5. Incubate for 1 hr at 37° C. and 5% CO2 • 6. At the end of the incubation period, spin plates at 300×g for 3 mins and remove supernatant • 7. Then add 50 μl of resazurin (Sigma #R7017) (FAC 100 μM resazurin in RPMI medium without FBS) and incubate plates for a further 1-2 hrs at 37° C. and 5% CO2 • 8. Plates were read in an Envision reader at Ex 560 nm and Em 590 nm • 9. IC50 data is fitted to a non-linear regression equation (log inhibitor vs response-variable slope 4-parameters)
# NLRP3 [2] = target: T1, NLRP3; test: Human whole blood IL-1β release assay (LPS + nigericin, AlphaLisa); format: cell-based; set-up: Plate out 80 μl of whole blood containing 1 μg/ml of LPS in 96-well, clear bottom cell culture plate; from tissue; host or cells: human whole blood from healthy donors (Li-heparin); conditions: NLRP3 inhibitory activity in human whole blood, 1 μg/ml LPS, 10 μM nigericin, read-out: HWB IC50
# Experimental: For systemic delivery, the ability to inhibit NLRP3 when the compounds are present within the bloodstream is of great importance. For this reason, the NLRP3 inhibitory activity of a number of compounds in human whole blood was investigated in accordance with the following protocol.
# Human whole blood in Li-heparin tubes was obtained from healthy donors from a volunteer donor panel. • 1. Plate out 80 μl of whole blood containing 1 μg/ml of LPS in 96-well, clear bottom cell culture plate (Corning #3585) • 2. Add 10 μl compound (8 points half-log dilution with 10 μM top dose) or vehicle (DMSO 0.1% FAC) to the appropriate wells • 3. Incubate for 3 hrs at 37° C., 5% CO2 • 4. Add 10 μl nigericin (Sigma #N7143) (10 μM FAC) to all wells • 5. Incubate for 1 hr at 37° C., 5% CO2 • 6. At the end of the incubation period, spin plates at 300×g for 5 mins to pellet cells and remove 20 μl of supernatant and add to 96-well v-bottom plates for IL-1β analysis (note: these plates containing the supernatants can be stored at −80° C. to be analysed at a later date) • 7. IL-1β was measured according to the manufacturer protocol (Perkin Elmer-AlphaLisa IL-1 Kit AL220F-5000) • 8. IC50 data is fitted to a non-linear regression equation (log inhibitor vs response-variable slope 4-parameters)
IC50 (NLRP3 [1]) [nM],IC50 (NLRP3 [2]) [µM],SMILES
≤ 1000,5 to 7.5,"O=C(Nc1c2c(cc3c1CCC3)CCC2)NS(=O)(=O)Cc1ccc(C(F)(F)F)cc1 [Example 10, N-((1,2,3,5,6,7-Hexahydro-s-indacen-4-yl)carbamoyl)-1-(4-(trifluoromethyl)phenyl)methanesulfonamide, Sodium Salt]"
2000 to 10000,–,"CC(C)c1cc(F)cc(-c2ccnc(C#N)c2)c1NC(=O)NS(=O)(=O)C(C)c1ccccc1 (stereo not shown) [Example 34, N-((2-(2-Cyanopyridin-4-yl)-4-fluoro-6-isopropylphenyl)carbamoyl)-1-phenylethanesulfonamide]"
≤ 1000,–,"O=C(Nc1c2c(cc3c1CCC3)CCC2)NS(=O)(=O)Cc1ccccc1Br [Example 17, 1-(2-Bromophenyl)-N-((1,2,3,5,6,7-hexahydro-s-indacen-4-yl)carbamoyl)methanesulfonamide, Sodium Salt]"
≤ 1000,≤ 5,"N#Cc1ccc(CS(=O)(=O)NC(=O)Nc2c3c(cc4c2CCC4)CCC3)cc1 [Example 8, 1-(4-Cyanophenyl)-N-((1,2,3,5,6,7-hexahydro-s-indacen-4-yl)carbamoyl)methanesulfonamide, Sodium Salt]"
≤ 1000,5 to 7.5,"Cc1cccc(CS(=O)(=O)NC(=O)Nc2c3c(cc4c2CCC4)CCC3)c1 [Example 20, N-((1,2,3,5,6,7-Hexahydro-s-indacen-4-yl)carbamoyl)-1-(m-tolyl)methanesulfonamide, Sodium Salt]"
2000 to 10000,–,"O=C(Nc1c(-c2ccncc2)cc(F)c2c1CCC2)NS(=O)(=O)Cc1ccccc1 [Example 25, N-((7-Fluoro-5-(pyridin-4-yl)-2,3-dihydro-1H-inden-4-yl)carbamoyl)-1-phenylmethanesulfonamide]"
≤ 1000,7.5 to 10,"CC(c1ccccc1)S(=O)(=O)NC(=O)Nc1c2c(cc3c1CCC3)CCC2 (stereo not shown) [Example 39, N-((1,2,3,5,6,7-Hexahydro-s-indacen-4-yl)carbamoyl)-1-phenylethanesulfonamide]"
≤ 1000,–,"O=C(Nc1c2c(cc3c1CCC3)CCC2)NS(=O)(=O)Cc1ccccc1C(F)(F)F [Example 16, N-((1,2,3,5,6,7-Hexahydro-s-indacen-4-yl)carbamoyl)-1-(2-(trifluoromethyl)phenyl)methanesulfonamide, Sodium Salt]"
≤ 1000,≤ 5,"[N-]=[N+]=NCCCS(=O)(=O)NC(=O)Nc1c2c(cc3c1CCC3)CCC2 [Example 21, 3-Azido-N-((1,2,3,5,6,7-hexahydro-s-indacen-4-yl)carbamoyl) propane-1-sulfonamide, Potassium Salt]"
≤ 1000,≤ 5,"COC(=O)c1ccc(CS(=O)(=O)NC(=O)Nc2c3c(cc4c2CCC4)CCC3)cc1 [Example 9, Methyl 4-((N-((1,2,3,5,6,7-hexahydro-s-indacen-4-yl)carbamoyl)sulfamoyl)methyl)benzoate, Sodium Salt]"
≤ 1000,5 to 7.5,"Cc1ccc(CS(=O)(=O)NC(=O)Nc2c3c(cc4c2CCC4)CCC3)cc1 [Example 14, N-((1,2,3,5,6,7-Hexahydro-s-indacen-4-yl)carbamoyl)-1-(p-tolyl)methanesulfonamide, Sodium Salt]"
≤ 1000,> 10,"O=C(Nc1c2c(cc3c1CCC3)CCC2)NS(=O)(=O)CCc1ccccc1 [Example 40, N-((1,2,3,5,6,7-Hexahydro-s-indacen-4-yl)carbamoyl)-2-phenylethanesulfonamide]"
≤ 1000,> 10,"O=C(Nc1c2c(cc3c1CCC3)CCC2)NS(=O)(=O)Cc1ccc(Cl)c(Cl)c1 [Example 6, 1-(3,4-Dichlorophenyl)-N-((1,2,3,5,6,7-hexahydro-s-indacen-4-yl)carbamoyl)methanesulfonamide, Sodium Salt]"
≤ 1000,> 10,"O=C(Nc1c2c(cc3c1CCC3)CCC2)NS(=O)(=O)Cc1ccc(Cl)cc1F [Example 12, 1-(4-Chloro-2-fluorophenyl)-N-((1,2,3,5,6,7-hexahydro-s-indacen-4-yl)carbamoyl)methanesulfonamide, Sodium Salt]"
≤ 1000,5 to 7.5,"O=C(Nc1c2c(cc3c1CCC3)CCC2)NS(=O)(=O)Cc1ccc(Cl)cc1 [Example 5, 1-(4-Chlorophenyl)-N-((1,2,3,5,6,7-hexahydro-s-indacen-4-yl)carbamoyl)methanesulfonamide, Sodium Salt]"
≤ 1000,–,"CC(C)CS(=O)(=O)NC(=O)Nc1c2c(cc3c1CCC3)CCC2 [Example 2, N-((1,2,3,5,6,7-Hexahydro-s-indacen-4-yl)carbamoyl)-2-methylpropane-1-sulfonamide, Potassium Salt]"
–,5 to 7.5,"O=C(Nc1c(-c2ccncc2)cc(F)c2c1CCC2)NS(=O)(=O)CCc1ccccc1 [Example 33, N-((7-Fluoro-5-(pyridin-4-yl)-2,3-dihydro-1H-inden-4-yl)carbamoyl)-2-phenylethanesulfonamide]"
≤ 1000,> 10,"O=C(Nc1c2c(cc3c1CCC3)CCC2)NS(=O)(=O)Cc1cc(Cl)cc(Cl)c1 [Example 4, 1-(3,5-Dichlorophenyl)-N-((1,2,3,5,6,7-hexahydro-s-indacen-4-yl)carbamoyl)methanesulfonamide, Sodium Salt]"
≤ 1000,–,"COC(=O)c1ccccc1CS(=O)(=O)NC(=O)Nc1c2c(cc3c1CCC3)CCC2 [Example 18, Methyl 2-((N-((1,2,3,5,6,7-hexahydro-s-indacen-4-yl)carbamoyl)sulfamoyl)methyl)benzoate]"
≤ 1000,> 10,"O=C(Nc1c2c(cc3c1CCC3)CCC2)NS(=O)(=O)Cc1cccc(Br)c1 [Example 19, 1-(3-Bromophenyl)-N-((1,2,3,5,6,7-hexahydro-s-indacen-4-yl)carbamoyl)methanesulfonamide, Sodium Salt]"
≤ 1000,> 10,"O=C(Nc1c2c(cc3c1CCC3)CCC2)NS(=O)(=O)Cc1ccc(Cl)c(F)c1 [Example 13, 1-(4-Chloro-3-fluorophenyl)-N-((1,2,3,5,6,7-hexahydro-s-indacen-4-yl)carbamoyl)methanesulfonamide, Sodium Salt]"
≤ 1000,≤ 5,"O=C(Nc1c2c(cc3c1CCC3)CCC2)NS(=O)(=O)Cc1ccc(F)cc1 [Example 7, 1-(4-Fluorophenyl)-N-((1,2,3,5,6,7-hexahydro-s-indacen-4-yl)carbamoyl)methanesulfonamide, Sodium Salt]"
≤ 1000,≤ 5,"O=C(Nc1c2c(cc3c1CCC3)CCC2)NS(=O)(=O)Cc1ccccc1 [Example 1, N-((1,2,3,5,6,7-Hexahydro-s-indacen-4-yl)carbamoyl)-1-phenyl Methanesulfonamide, Potassium Salt]"
≤ 1000,> 10,"O=C(Nc1c2c(cc3c1CCC3)CCC2)NS(=O)(=O)Cc1ccccc1Cl [Example 15, 1-(2-Chlorophenyl)-N-((1,2,3,5,6,7-hexahydro-s-indacen-4-yl)carbamoyl)methanesulfonamide, Sodium Salt]"
≤ 1000,7.5 to 10,"COc1cccc(CS(=O)(=O)NC(=O)Nc2c3c(cc4c2CCC4)CCC3)c1 [Example 11, N-((1,2,3,5,6,7-Hexahydro-s-indacen-4-yl)carbamoyl)-1-(3-methoxyphenyl)methanesulfonamide, Sodium Salt]"
